Experimental findings from patent US20250072423A1, “THIOPHENE ACETIC ACID FOR PLANT GROWTH REGULATION” (priority 2023, published 2025) are described below.

For assay [1], the system named is tomato cotyledon explants. As to the kind of experiment: Root regeneration from tomato cotyledon explants in vitro (Experiment 2). Particulars: 0.05 and 0.1 mg/L, no other hormones; for organogenesis from tomato cotyledon explants (root formation): within 7 days. It counts as cell-based, tomato cultivar Roma VF. As to the method: Seeds of tomato cultivar Roma VF were sterilized by treating with 75% ethanol for 30 seconds at room temperature and washed with sterile water for five times. The seeds were then treated with 15% sodium hypochlorite for 10 minutes and washed five times in sterile water. The sterilized seeds were germinated on half-strength Murashige and Skoog (MS) medium in vitro. Cotyledons from 10-day old seedlings before first true leaves emerged were used as starting explants in all the experiments. The base and tip of the cotyledons were excised and the explants were transferred with the abaxial surface in contact with the culture medium. The basic culture medium consists of MS medium with vitamins supplemented with 30 g/L sucrose and gelled with 0.8% agar, and the pH of the medium was adjusted to 5.8±0.2. Plates were maintained at a light cycle of 16/8 hours day/night, temperature of 26/24° C. day/night, and relative humidity of 70% and subcultured on the same media after 14 days. Observations were made on 7, 14, 21 and 28 days of growth. All experiments were conducted with at least three replicates of 10 explants each.
In order to analyze the effect of TAA on root regeneration, the basic media were supplemented with different concentrations of TAA (0.05 and 0.1 mg/L) and further compared with individual effect of widely used auxins (IAA, NAA, IBA, 2,4 D) at similar concentrations.

Assay [2] relates to tomato cotyledon explants. As to the kind of experiment: Shoot regeneration from tomato cotyledon explants with 1 mg/L BAP (Experiment 3). It counts as cell-based, tomato cultivar Roma VF. The source says: The sterilized seeds were germinated on half-strength Murashige and Skoog (MS) medium in vitro. Cotyledons from 10-day old seedlings before first true leaves emerged were used as starting explants in all the experiments. The base and tip of the cotyledons were excised and the explants were transferred with the abaxial surface in contact with the culture medium. The basic culture medium consists of MS medium with vitamins supplemented with 30 g/L sucrose and gelled with 0.8% agar, and the pH of the medium was adjusted to 5.8±0.2. […] All experiments were conducted with at least three replicates of 10 explants each.
To analyse the effects on shoot regeneration, the basic media was supplemented with 1 mg/L BAP and different concentrations of TAA, IAA, NAA, IBA and 2,4 D (0.05, 0.1, 0.5, 1.0 and 2.0 mg/L) individually. Since there are no previous reports on suitable concentration ranges for TAA in tomato regeneration, concentrations at 50.0, 100.0, 200.0 and 300.0 mg/L were analysed additionally for TAA.

Assay [3] deals with WT Arabidopsis seedlings. The experiment in a line: Root growth of WT Arabidopsis seedlings (Experiment 6). In kind it is in vivo, A. thaliana. Particulars: Arabidopsis thaliana, 144 h; 6 days growth, 8-day-old seedlings; read-out: concentration that reduced the primary root length to 50% of control. As to the method:
(§1) Arabidopsis Columbia-0 wild type (WT) was used for assessing the effect of TAA on root growth and its effects on the expression of auxin-responsive genes. Seeds of A. thaliana were surface sterilized by suspending in 70% ethanol for 1 minute, followed by treatment with 10% bleach for 20 minutes. After thorough washing with sterile distilled water, the sterilized seeds were plated onto germination medium (half-strength Murashige and Skoog basal medium with vitamins (1/2 MS) medium supplemented with 1% sucrose and 0.7% plant agar) for germination. Germination was initiated by incubating the seeds in darkness at 5° C. for 2 days, followed by transfer to a light environment at 22° C. with a photoperiod of 16-h light/8-h dark for further growth. Stock solutions of TAA were prepared in DMSO (dimethyl sulfoxide). In control treatments, DMSO was used in equal amounts as present in the greatest concentration of TAA tested.
To analyze the effect of TAA on root growth, WT Arabidopsis seedlings were germinated as described and uniform-looking 8-day-old seedlings were transferred to germination medium supplemented with different concentrations of TAA (0.1, 1, 2, 5, 10, 25, 50, and 100 μM) or NAA/IAA/IBA (0.05, 0.1, 1, 2 and 5 μM). For IBA, two additional concentrations (10 and 25 μM) were also analyzed. Seedlings grown on media supplemented with an equal volume of DMSO were used as control. The seedlings were allowed to grow for 6 days and the plates were photographed at 24 h intervals. Primary root length was measured using Image J software. The difference in the number of lateral roots (LR) and root hairs was visually observed. Microscopic images were taken on a Leica Thunder Imager System (Leica Microsystems Ltd., Switzerland) and the images were processed with LAS X software.

A further assay relates to tobacco leaf explants. The experiment in a line: Shoot organogenesis from tobacco leaf explants in vitro (Experiment 4). In kind it is cell-based, Nicotiana tabacum L. cv. Petit Havana SRI. The settings on record: 8 weeks.
In assay [4] the test system is WT Arabidopsis seedlings. As to the kind of experiment: Root growth of WT Arabidopsis seedlings in the presence of NPA (Experiment 7). Particulars: NPA even at low concentrations (0.5 μM). In kind it is in vivo, A. thaliana. As to the method:
as §1
To analyze the effect of TAA on root growth in the presence of NPA (N-1-naphthylphthalamic acid), WT Arabidopsis seedlings were germinated as described and uniform-looking 8-day-old seedlings were transferred to germination medium supplemented with different concentrations of TAA (5 and 10 μM) and different concentrations of NPA (0, 0.5, 1, 2, 4, and 8 μM). The seedlings were allowed to grow for 6 days and the plates were photographed at 24 h intervals. […]

Setting [5] is: 1 mg/L IAA added to 3% MS + 2 mg/L kinetin.
The mark [6] stands for this setting: basic shoot regeneration media: 3% MS media + 2 mg/L kinetin.

`O=C(O)Cc1c[nH]c2ccccc12` [IAA, indole-3-acetic acid, reference compound]: in assay [1], the “organogenesis from tomato cotyledon explants (root formation)” value (“organogenesis … (root formation)” below) is listed as “rapid root formation”. Also, the shoot organogenesis result in assay [2] (2 mg/L with 1 mg/L BAP) is “mostly callus and root formation”. Further, the shoot organogenesis entry in assay [2] (0.05, 0.1, 0.5 and 1.0 mg/L with 1 mg/L BAP) was “better shoot formation than NAA”. Further, the IC50 in the assay with WT Arabidopsis seedlings [3] turned out to be 100 nM. Further, in the assay on tobacco leaf explants (setting [5]), the “increase of number of shoots regenerated per explant versus basic shoot regeneration media” value is “more than 3 times” and the “increase of total number of shoots regenerated versus basic shoot regeneration media” value is reported as “more than 3 times”.
Consider `O=C(O)Cc1cccc2ccccc12` [NAA, naphthalene-1-acetic acid], for which the “organogenesis … (root formation)” value in assay [1] is on record as “rapid root formation”. In addition, the shoot organogenesis entry was “most explants produced callus, but a few produced shoots” in assay [2] (0.05 mg/L with 1 mg/L BAP) and “mostly callus by Day 28, but a few of them showed root formation” in assay [2] (higher concentrations (above 0.05 up to 2.0 mg/L) with 1 mg/L BAP, Day 28). In the assay on WT Arabidopsis seedlings [3], the IC50 turned out to be 50 nM.
As to `O=C(O)CCCc1c[nH]c2ccccc12` [IBA, indole-3-butyric acid], in assay [1], the “organogenesis … (root formation)” value is given as “rapid root formation”. Moreover, the shoot organogenesis result is “callus and well-defined shoot formation” in assay [2] (0.05, 0.1 and 0.5 mg/L with 1 mg/L BAP); “mostly callus and some root formation” in assay [2] (1.0 and 2.0 mg/L with 1 mg/L BAP). The IC50 with WT Arabidopsis seedlings [3] worked out at 10000 nM.
As for `O=C(O)COc1ccc(Cl)cc1Cl` [2,4D, 2,4-dichlorophenoxyacetic acid], the “organogenesis from tomato cotyledon explants” value in assay [1] (by Day 14) was “formed more callus and few of the explants showed longer roots”. Further, the “organogenesis … (root formation)” value in assay [1] was “the explants enlarged in size and started showing signs of callus formation”. For the same compound, the shoot organogenesis result in assay [2] (0.05, 0.1, 0.5, 1.0 and 2.0 mg/L with 1 mg/L BAP) is reported as “did not show any shoot formation”.
Turning to `O=C(O)c1ccccc1C(=O)Nc1cccc2ccccc12` [NPA, N-1-naphthylphthalamic acid, reference compound], the “primary root length and number of LR” value with WT Arabidopsis seedlings [4] was “reduced primary root length and the number of LR”.
`c1coc(CNc2ncnc3[nH]cnc23)c1` [kinetin, reference compound]: in the assay on tobacco leaf explants (setting [6]), the “average number of shoots per explant” value is reported as 3.10 and the “total number of shoots regenerated per plate” value is reported as 21.7.
